For the test, the target named is Cannabinoid receptor 1 (Rattus norvegicus, UniProt P20272). Nature of the test: Binding Assay. The note with it: pH 7.4; 25 °C. The procedure:
CB1 competitive assay were performed in rat cerebellar membranes using [3H]WIN 55212-2 from Perkin-Elmer as a radioligand.
Cannabinoid receptor 1, sequence (P20272 whole entry): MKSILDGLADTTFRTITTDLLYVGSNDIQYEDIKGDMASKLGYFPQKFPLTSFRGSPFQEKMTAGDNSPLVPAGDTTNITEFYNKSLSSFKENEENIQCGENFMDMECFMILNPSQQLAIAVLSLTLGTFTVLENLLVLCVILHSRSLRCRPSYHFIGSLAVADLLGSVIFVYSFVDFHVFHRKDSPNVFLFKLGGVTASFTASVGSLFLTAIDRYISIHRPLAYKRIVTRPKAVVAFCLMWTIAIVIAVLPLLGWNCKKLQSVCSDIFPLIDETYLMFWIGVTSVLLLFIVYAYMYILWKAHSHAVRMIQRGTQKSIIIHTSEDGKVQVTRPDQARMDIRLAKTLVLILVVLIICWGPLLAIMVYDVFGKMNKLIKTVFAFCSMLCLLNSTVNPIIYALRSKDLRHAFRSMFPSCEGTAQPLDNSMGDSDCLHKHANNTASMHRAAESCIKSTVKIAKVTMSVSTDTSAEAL
The term Ki denotes a measure of affinity in units of concentration, obtained from inhibition or displacement. A low value points to a stronger hold on the target. `COc1ccc(/N=C2\C(=O)N(CCN3CCOCC3)c3ccc(C)cc32)cc1` [5-Substituted derivative, 3] registered a Ki of 390 nM.

Consider `COc1ccc(/N=C2\C(=O)N(CCN3CCOCC3)c3ccc(Cl)cc32)cc1` [5-Substituted derivative, 2], for which the Ki was determined as 74.6 nM.

Consider `COc1ccc(NCc2cn(CCN3CCOCC3)c3ccccc23)cc1` [4-methoxy-N-({1-[2-(morpholin-4-yl)ethyl]-1H-indol-3-yl}methyl)aniline, 7], for which the affinity, expressed as Ki, was 42.6 nM.

`O=C1/C(=N\c2cccc3ccccc23)c2cc(Cl)ccc2N1CCN1CCOCC1` [5-Substituted derivative, 5] displayed a Ki of 8.4 nM.

`c1ccc2c(NCc3cn(CCN4CCOCC4)c4ccccc34)cccc2c1` [N-({1-[2-(morpholin-4-yl)ethyl]-1H-indol-3-yl}methyl)naphthalen-1-amine, 8] gave a Ki of 49.4 nM.

`Cc1ccc(NCc2cn(CCN3CCOCC3)c3ccccc23)cc1` [4-methyl-N-({1-[2-(morpholin-4-yl)ethyl]-1H-indol-3-yl}methyl)aniline, 10] yielded a Ki of 15.7 nM.

`O=C1/C(=N\c2cccc3ccccc23)c2ccccc2N1CCN1CCOCC1` [3-(Arylimino)-1-(2-morpholin-4-yl-ethyl)-1,3-dihydro-indole-2-one, 4] showed a Ki of 553 nM.

`COc1ccc(/N=C2\C(=O)N(CCN3CCOCC3)c3ccccc32)cc1` [3-(Arylimino)-1-(2-morpholin-4-yl-ethyl)-1,3-dihydro-indole-2-one, 1] came in with an inhibition constant (Ki) of 311 nM.

On to `Clc1ccc(NCc2cn(CCN3CCOCC3)c3ccccc23)cc1` [4-chloro-N-({1-[2-(morpholin-4-yl)ethyl]-1H-indol-3-yl}methyl)aniline, 9], for which the Ki was found to be 24.1 nM.

For `Cc1ccc2c(c1)/C(=N/c1cccc3ccccc13)C(=O)N2CCN1CCOCC1` [5-Substituted derivative, 6], the Ki stood at 69.6 nM.
